From the supplement of paper PMC10307832

Legend:
Assay in all cases: relative viability (nuclei count vs DMSO), 5 days (fraction); higher = more cells survive
Selisistat + Lapatinib = compound: C1CC(C2=C(C1)C3=C(N2)C=CC(=C3)Cl)C(=O)N [Selisistat] + CS(=O)(=O)CCNCc1ccc(-c2ccc3ncnc(Nc4ccc(OCc5cccc(F)c5)c(Cl)c4)c3c2)o1 [Lapatinib] (partner 2 µM)
Summary of the method: (§1)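 The day after seeding in 1536-well plates, lung cancer cell lines were treated by pin tool with a single drug, or with a fixed anchor-drug dose together with five library-drug doses (not always all listed) in √10 steps. After 5 days, a combined fix-and-stain solution (final 0.05% Triton X-100, 1% formaldehyde, 1 ug/ml Hoechst) was added. Nuclei counted on 4× images gave relative viability as treated counts over vehicle counts, reported as the median of duplicate plates.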

Selisistat + Tozasertib = compound: C1CC(C2=C(C1)C3=C(N2)C=CC(=C3)Cl)C(=O)N [Selisistat] + Cc1cc(Nc2cc(N3CCN(C)CC3)nc(Sc3ccc(NC(=O)C4CC4)cc3)n2)n[nH]1 [Tozasertib] (partner 0.1 µM)
Summary of the method: as §1

Selisistat + Olaparib = compound: C1CC(C2=C(C1)C3=C(N2)C=CC(=C3)Cl)C(=O)N [Selisistat] + O=C(c1cc(Cc2n[nH]c(=O)c3ccccc23)ccc1F)N1CCN(C(=O)C2CC2)CC1 [Olaparib] (partner 8 µM)
Summary of the method: as §1

Selisistat + Bortezomib = compound: C1CC(C2=C(C1)C3=C(N2)C=CC(=C3)Cl)C(=O)N [Selisistat] + CC(C)C[C@H](NC(=O)[C@H](Cc1ccccc1)NC(=O)c1cnccn1)B(O)O [Bortezomib] (partner 0.002 µM)
Summary of the method: as §1

Cell Line	relative viability (Selisistat + Lapatinib; first compound 0.4 µM)	relative viability (Selisistat + Lapatinib; first compound 1.265 µM)	relative viability (Selisistat + Lapatinib; first compound 12.65 µM)	relative viability (Selisistat + Lapatinib; first compound 40 µM)	relative viability (Selisistat + Tozasertib; first compound 0.4 µM)	relative viability (Selisistat + Tozasertib; first compound 1.265 µM)	relative viability (Selisistat + Tozasertib; first compound 12.65 µM)	relative viability (Selisistat + Tozasertib; first compound 40 µM)	relative viability (Selisistat + Olaparib; first compound 0.4 µM)	relative viability (Selisistat + Olaparib; first compound 1.265 µM)	relative viability (Selisistat + Olaparib; first compound 12.65 µM)	relative viability (Selisistat + Olaparib; first compound 40 µM)	relative viability (Selisistat + Lapatinib; first compound 4 µM)	relative viability (Selisistat + Olaparib; first compound 4 µM)	relative viability (Selisistat + Tozasertib; first compound 4 µM)	relative viability (Selisistat + Bortezomib; first compound 0.4 µM)	relative viability (Selisistat + Bortezomib; first compound 1.265 µM)	relative viability (Selisistat + Bortezomib; first compound 4 µM)	relative viability (Selisistat + Bortezomib; first compound 12.65 µM)	relative viability (Selisistat + Bortezomib; first compound 40 µM)
NCI-H1793	0.793	0.636	0.816	0.816	0.324	0.395	0.326	0.582	1.01	0.935	0.812	0.912	–	–	–	–	–	–	–	–
A549	1.05	0.937	0.974	0.95	–	–	–	–	0.439	0.299	0.324	0.314	1.12	0.267	–	–	–	–	–	–
NCI-H358	0.492	0.443	0.397	0.373	0.0984	0.1	0.092	0.0962	0.724	0.593	0.553	0.662	–	0.696	0.102	–	–	–	–	–
NCI-H1563	1.03	0.95	0.825	0.921	–	–	–	–	–	–	–	–	0.881	–	–	0.855	0.753	0.752	0.789	0.581
NCI-H1395	1.09	0.973	0.91	0.883	0.705	0.698	0.8	0.686	0.474	0.47	0.451	0.465	1	–	0.81	–	–	–	–	–
SW 900	–	–	–	–	0.677	0.563	0.567	0.559	0.905	0.914	0.833	0.862	–	0.941	0.589	–	–	–	–	–
IA-LM	0.723	0.931	–	0.894	–	–	–	–	0.899	0.897	0.802	0.806	0.817	0.849	–	0.867	0.735	0.758	0.682	0.881
NCI-H1703	1.1	1.06	1.05	1.05	–	–	–	–	0.416	0.425	0.42	0.433	1.12	0.362	–	0.293	0.286	0.301	0.266	0.332
NCI-H441	–	–	–	–	0.688	0.607	0.597	0.59	0.49	0.51	0.504	0.534	–	0.582	0.65	0.74	0.588	–	0.467	0.482
LCLC-103H	–	–	–	–	0.435	0.515	0.47	0.565	0.814	0.798	0.724	0.833	–	0.78	0.494	1.15	1.03	0.979	1.14	1.09
NCI-H1648	–	–	–	–	0.511	0.513	0.395	0.64	0.878	0.792	0.918	1.2	–	–	0.609	–	–	–	–	–
